Experimental data from patent US20240158370A1, “CK1 alpha AND DUAL CK1 alpha / GSPT1 DEGRADING COMPOUNDS” (Innovo Therapeutics, Inc., priority 2022, published 2024).
pEC50: −log10 of the molar value.

Tests used:
Type in all cases: cell-based
CK1α = target: T1, CK1α (Homo sapiens, UniProt P48729+Q96SW2); experiment: HiBiT degradation assay, CK1α, Procedure A
T1 construct: CSNK1A1-HiBit KI HEK293(LgBit) Cells; host or cells: HEK293(LgBit) knock-in cells
Summary of the method: (§1)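 Luminescence from HiBiT lytic detection reports remaining tagged protein after cells sit six hours at 37° C with compound across ten concentrations (10 μM down to 0.005 μM, 0.1% DMSO). A 4-parameter curve fit gives DC50 and Ymin.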

Z-138 cells = experiment: Z-138 Proliferation Assay (Cell Titer-Glo); details: 72 hours; for Ymin (%): % remaining (percent of DMSO control); for pEC50: Homo sapiens, Cell Titer-Glo, 4-parameter curve fit
Description: Z-138 Proliferation Assay
Z-138 cells were cultured in IMDM Medium supplemented with 10% heat in-activated fetal bovine serum and 1% Penicillin-Streptomycin.
10 mM stocks of compound were made from fresh powder. DMSO was added to solid compound so that the final concentration was 10 mM. Compounds were vortexed and allowed to sit for 5 minutes to ensure complete solubility. Solvated compound was aliquoted into 1 ml Eppendorf tubes and stored in a −20° C. freezer.
Z-138 cells were maintained in culture using standard cell culturing techniques.
Cells were maintained at a density of 0.8×10^6 cells/ml.
Re-constitute cell titer-glo reagent according to manufacturer's protocol.
Z-138 cells were removed from culture and cell viability and density were determined using a CellDrop™ Automated Cell Counter with Tryphan blue stain according to manufacturer's protocols. Cells were centrifuged and resuspended using fresh media to a cell density of 0.1×10^6 cells/ml. […] 40 μl of cell suspension was added to the wells of a 384 well tissue culture plate (4,000 cells/well final). Upon completing the addition of the cells to the plate, the plates were centrifuged for 30 seconds at 300 rpms to help the cells settle and to bring air bubbles to the top of the wells. Air bubbles were popped using a pipette tip.
10-point dose response curves were performed using a D300e Digital Dispenser. The highest concentration of compound used in the assay was 10,000 nM. 1:2 dilutions were performed over a 10-point range with the final DMSO concentration being 0.1%. The cells were cultured for 72 hours in the presence of compound.
After 72 hours, the cell plates were removed from the incubator and allowed to equilibrate to room temperature (about 15 minutes). 20 μl of cell titer-glo reagent was added to each well of the 384 well plate. Incubated the plate for 30 minutes in the dark. After 30 minutes, ensured that there were no air bubbles in the plate (popped bubbles with pipette tip if necessary) and analyzed plate using a luminometer.
EC50 curves were generated using Prism Graph Pad. In brief, POCs (percent of control, compound/DMSO control×100) were plotted against the compound concentrations (log scale). EC50 curves were generated using a 4-parameter curve fit.

GSPT1 = GSPT1 (Homo sapiens, UniProt P15170+Q96SW2); experiment: HiBiT degradation assay, GSPT1, Procedure A; set-up: HiBit-GSPT1 KI HEK293(LgBit) Cells; host or cells: HEK293(LgBit) knock-in cells
Summary of the method: as §1

Chain of GSPT1 (P15170 whole entry): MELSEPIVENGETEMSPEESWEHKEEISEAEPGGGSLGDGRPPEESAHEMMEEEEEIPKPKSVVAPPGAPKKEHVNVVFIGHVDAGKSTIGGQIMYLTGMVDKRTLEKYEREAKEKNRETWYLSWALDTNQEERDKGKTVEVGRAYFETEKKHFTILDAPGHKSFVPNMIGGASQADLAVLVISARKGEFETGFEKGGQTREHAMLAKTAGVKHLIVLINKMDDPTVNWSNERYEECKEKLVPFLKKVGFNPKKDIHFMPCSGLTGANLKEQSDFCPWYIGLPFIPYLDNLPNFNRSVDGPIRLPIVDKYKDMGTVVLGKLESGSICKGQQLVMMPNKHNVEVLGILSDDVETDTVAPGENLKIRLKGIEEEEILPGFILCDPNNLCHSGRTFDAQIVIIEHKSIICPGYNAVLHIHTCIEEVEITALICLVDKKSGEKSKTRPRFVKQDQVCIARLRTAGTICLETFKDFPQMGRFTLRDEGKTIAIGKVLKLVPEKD
Chain of GSPT1 (Q96SW2 whole entry): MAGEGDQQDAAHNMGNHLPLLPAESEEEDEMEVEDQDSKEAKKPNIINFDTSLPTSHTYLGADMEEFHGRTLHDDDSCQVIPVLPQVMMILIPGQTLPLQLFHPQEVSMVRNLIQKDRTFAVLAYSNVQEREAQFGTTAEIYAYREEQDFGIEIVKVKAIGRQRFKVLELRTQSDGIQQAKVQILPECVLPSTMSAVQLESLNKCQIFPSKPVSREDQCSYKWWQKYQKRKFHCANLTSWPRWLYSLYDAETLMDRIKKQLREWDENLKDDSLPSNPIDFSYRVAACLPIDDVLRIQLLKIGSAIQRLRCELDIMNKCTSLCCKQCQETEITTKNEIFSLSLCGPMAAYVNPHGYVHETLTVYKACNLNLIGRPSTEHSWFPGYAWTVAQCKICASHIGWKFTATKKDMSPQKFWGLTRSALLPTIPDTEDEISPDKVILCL
Chain of GSPT1 (Q16531 whole entry partner): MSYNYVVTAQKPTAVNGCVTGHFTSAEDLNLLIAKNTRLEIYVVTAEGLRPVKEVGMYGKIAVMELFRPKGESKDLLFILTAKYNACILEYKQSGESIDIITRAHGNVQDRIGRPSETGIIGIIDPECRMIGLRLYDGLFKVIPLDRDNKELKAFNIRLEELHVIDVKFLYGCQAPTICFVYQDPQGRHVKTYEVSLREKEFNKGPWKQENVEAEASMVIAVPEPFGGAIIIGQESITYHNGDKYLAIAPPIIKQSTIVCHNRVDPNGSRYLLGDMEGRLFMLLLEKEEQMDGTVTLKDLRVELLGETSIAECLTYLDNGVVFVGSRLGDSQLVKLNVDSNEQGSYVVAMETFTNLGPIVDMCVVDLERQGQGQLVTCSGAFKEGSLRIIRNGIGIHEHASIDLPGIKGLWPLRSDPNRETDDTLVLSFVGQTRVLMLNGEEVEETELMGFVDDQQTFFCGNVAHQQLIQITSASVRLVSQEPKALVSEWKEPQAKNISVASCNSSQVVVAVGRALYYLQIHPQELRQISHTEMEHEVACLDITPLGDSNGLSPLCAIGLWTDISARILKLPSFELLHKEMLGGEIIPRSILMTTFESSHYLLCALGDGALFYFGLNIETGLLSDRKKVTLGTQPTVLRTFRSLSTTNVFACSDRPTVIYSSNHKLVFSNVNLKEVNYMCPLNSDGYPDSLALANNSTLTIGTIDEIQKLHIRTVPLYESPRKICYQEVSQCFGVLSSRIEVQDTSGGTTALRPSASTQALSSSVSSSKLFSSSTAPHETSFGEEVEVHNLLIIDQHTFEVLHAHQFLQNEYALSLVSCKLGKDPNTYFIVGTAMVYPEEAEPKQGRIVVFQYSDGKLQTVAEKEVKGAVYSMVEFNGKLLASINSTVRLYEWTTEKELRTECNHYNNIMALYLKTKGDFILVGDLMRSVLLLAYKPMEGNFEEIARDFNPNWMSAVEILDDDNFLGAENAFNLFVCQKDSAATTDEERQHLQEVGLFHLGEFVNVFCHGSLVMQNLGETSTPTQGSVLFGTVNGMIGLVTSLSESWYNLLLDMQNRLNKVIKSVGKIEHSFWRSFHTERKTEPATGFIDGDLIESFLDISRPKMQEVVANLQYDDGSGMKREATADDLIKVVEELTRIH
T1 sequence (P48729 whole entry): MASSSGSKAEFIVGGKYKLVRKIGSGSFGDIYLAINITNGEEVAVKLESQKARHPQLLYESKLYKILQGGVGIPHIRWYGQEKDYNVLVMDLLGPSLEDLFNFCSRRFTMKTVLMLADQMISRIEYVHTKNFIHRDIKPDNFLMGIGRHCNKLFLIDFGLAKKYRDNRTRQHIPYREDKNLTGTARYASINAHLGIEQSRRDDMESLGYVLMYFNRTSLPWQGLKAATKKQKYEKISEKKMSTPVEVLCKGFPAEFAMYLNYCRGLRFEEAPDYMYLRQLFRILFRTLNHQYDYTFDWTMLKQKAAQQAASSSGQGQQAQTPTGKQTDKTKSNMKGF
T1 sequence (Q96SW2 whole entry): as the sequence (Q96SW2 whole entry) above
T1 sequence (Q16531 whole entry partner): as the sequence (Q16531 whole entry partner) above

CK1α Ymin (CK1α; six hours incubation) | DC50 (CK1α; six hours incubation) | DC50 (GSPT1; six hours incubation) | GSPT1 Ymin (GSPT1; six hours incubation) | CK1α Ymin (CK1α; six hours) | DC50 (CK1α; six hours) | DC50 (GSPT1; six hours) | GSPT1 Ymin (GSPT1; six hours) | SMILES | Ymin (%) (Z-138 cells) | pEC50 (Z-138 cells)
C (C = 0-10% remaining) | < 25 nM | < 25 nM | F (F = >75-100% remaining) | – | – | – | – | Cn1c(C(F)(F)F)nc(-c2ccc3c(c2)CN(C2CCC(=O)NC2=O)C3=O)c1-c1ccccc1 (stereo not drawn) [Example 52, 3-(5-(1-Methyl-5-phenyl-2-(trifluoromethyl)-1H-imidazol-4-yl)-1-oxoisoindolin-2-yl)piperidine-2,6-dione] | D (0-10% remaining) | > 8.00
C (C = 0-10% remaining) | < 25 nM | ≥ 25 nM | F (F = >75-100% remaining) | – | – | – | – | COc1ccc(-c2c(-c3ccc4c(c3)CN(C3CCC(=O)NC3=O)C4=O)cnn2C)c(F)c1 (stereo not drawn) [Example 64] | E (>10-25% remaining) | > 8.00
D (D = >10- 25% remaining) | < 25 nM | ≥ 25 nM | C (C = 0-10% remaining) | – | – | – | – | Cn1cnc(-c2ccc3c(c2)CN(C2CCC(=O)NC2=O)C3=O)c1-c1ccc(F)c(C#N)c1 (stereo not drawn) [Example 184] | D (0-10% remaining) | 7.00 to 8.00
C (C = 0-10% remaining) | < 25 nM | ≥ 25 nM | F (F = >75-100% remaining) | – | – | – | – | CN(C)Cc1ccc(-c2c(-c3ccc4c(c3)CN(C3CCC(=O)NC3=O)C4=O)cnn2C)cc1 (stereo not drawn) [Example 224] | E (>10-25% remaining) | > 8.00
C (C = 0-10% remaining) | < 25 nM | < 25 nM | F (F = >75-100% remaining) | – | – | – | – | CN(C)Cc1ccc(-c2c(-c3ccc4c(c3)CN(C3CCC(=O)NC3=O)C4=O)ncn2C)cc1 (stereo not drawn) [Example 269] | D (0-10% remaining) | > 8.00
D (D = >10- 25% remaining) | < 25 nM | < 25 nM | F (F = >75-100% remaining) | – | – | – | – | Cn1cnc(-c2ccc3c(c2)CN(C2CCC(=O)NC2=O)C3=O)c1-c1cccc(N2CCCC2)c1 (stereo not drawn) [Example 287] | D (0-10% remaining) | > 8.00
C (C = 0-10% remaining) | < 25 nM | ≥ 25 nM | E (E = >25-75% remaining) | – | – | – | – | Cn1cc(-c2c(-c3ccc4c(c3)CN(C3CCC(=O)NC3=O)C4=O)ncn2C)cn1 (stereo not drawn) [Example 319] | D (0-10% remaining) | 7.00 to 8.00
D (D = >10- 25% remaining) | < 25 nM | ≥ 25 nM | F (F = >75-100% remaining) | – | – | – | – | Cn1cnc(-c2ccc3c(c2)CN(C2CCC(=O)NC2=O)C3=O)c1-c1cnn2ccccc12 (stereo not drawn) [Example 331] | D (0-10% remaining) | 7.00 to 8.00
– | – | – | – | C (C = 0-10% remaining) | < 25 nM | ≥ 25 nM | F (F = >75-100% remaining) | O=C1CCC(N2Cc3cc(-c4cn(C(F)F)c(-c5ccccc5)n4)ccc3C2=O)C(=O)N1 (stereo not drawn) [Example 421, 3-(5-(1-(difluoromethyl)-2-phenyl-1H-imidazol-4-yl)-1-oxoisoindolin-2-yl)piperidine-2,6-dione] | F (>25-50% remaining) | 7.00 to 8.00
– | – | – | – | D (D = >10- 25% remaining) | < 25 nM | < 25 nM | F (F = >75-100% remaining) | O=C1CCC(N2Cc3cc(-c4cnn(C(F)F)c4-c4ccccc4)ccc3C2=O)C(=O)N1 (stereo not drawn) [Example 422, 3-(5-(1-(difluoromethyl)-5-phenyl-1H-pyrazol-4-yl)-1-oxoisoindolin-2-yl)piperidine-2,6-dione] | D (0-10% remaining) | 7.00 to 8.00
– | – | – | – | C (C = 0-10% remaining) | < 25 nM | < 25 nM | F (F = >75-100% remaining) | COc1ccc(-c2c(-c3ccc4c(c3)CN(C3CCC(=O)NC3=O)C4=O)cnn2C(F)F)c(Cl)c1 (stereo not drawn) [Example 518, 3-(5-(5-(2-chloro-4-methoxyphenyl)-1-(difluoromethyl)-1H-pyrazol-4-yl)-1-oxoisoindolin-2-yl)piperidine-2,6-dione] | D (0-10% remaining) | 7.00 to 8.00
– | – | – | – | C (C = 0-10% remaining) | < 25 nM | ≥ 25 nM | F (F = >75-100% remaining) | CC(C)n1nc(-c2ccc3c(c2)CN(C2CCC(=O)NC2=O)C3=O)cc1-c1ccccc1 (stereo not drawn) [Example 550, 3-(5-(1-isopropyl-5-phenyl-1H-pyrazol-3-yl)-1-oxoisoindolin-2-yl)piperidine-2,6-dione] | D (0-10% remaining) | 7.00 to 8.00

Further lines, the compound ahead of its results:

SMILES | CK1α Ymin (CK1α; six hours incubation) | DC50 (CK1α; six hours incubation) | DC50 (GSPT1; six hours incubation) | GSPT1 Ymin (GSPT1; six hours incubation) | CK1α Ymin (CK1α; six hours) | DC50 (CK1α; six hours) | DC50 (GSPT1; six hours) | GSPT1 Ymin (GSPT1; six hours) | Ymin (%) (Z-138 cells) | pEC50 (Z-138 cells)
Cc1ccc(-c2c(-c3ccc4c(c3)CN(C3CCC(=O)NC3=O)C4=O)cnn2C)cc1 (stereo not drawn) [Example 72] | D (D = >10- 25% remaining) | < 25 nM | ≥ 25 nM | F (F = >75-100% remaining) | – | – | – | – | E (>10-25% remaining) | 7.00 to 8.00
O=C1CCC(N2Cc3cc(-c4cnn5c4-c4ccccc4C5)ccc3C2=O)C(=O)N1 (stereo not drawn) [Example 212, 3-(1-Oxo-5-(8H-pyrazolo[5,1-a]isoindol-3-yl)isoindolin-2-yl)piperidine-2,6-dione] | D (D = >10- 25% remaining) | < 25 nM | ≥ 25 nM | F (F = >75-100% remaining) | – | – | – | – | D (0-10% remaining) | 6.30 to 7.00
Cn1cc(-c2ccc3c(c2)CN(C2CCC(=O)NC2=O)C3=O)nc1C1CCCCC1 (stereo not drawn) [Example 335, 3-(5-(2-cyclohexyl-1-methyl-1H-imidazol-4-yl)-1-oxoisoindolin-2-yl)piperidine-2,6-dione] | C (C = 0-10% remaining) | < 25 nM | < 25 nM | F (F = >75-100% remaining) | – | – | – | – | D (0-10% remaining) | 7.00 to 8.00
O=C1CCC(N2Cc3cc(-c4ncn5c4-c4ccccc4C5)ccc3C2=O)C(=O)N1 (stereo not drawn) [Example 339, 3-(5-(5H-imidazo[5,1-a]isoindol-1-yl)-1-oxoisoindolin-2-yl)piperidine-2,6-dione] | C (C = 0-10% remaining) | < 25 nM | < 25 nM | F (F = >75-100% remaining) | – | – | – | – | D (0-10% remaining) | 7.00 to 8.00
Cn1ncc(-c2ccc3c(c2)CN(C2CCC(=O)NC2=O)C3=O)c1-c1ccc2cc[nH]c2c1 (stereo not drawn) [Example 379] | – | – | – | – | C (C = 0-10% remaining) | < 25 nM | ≥ 25 nM | F (F = >75-100% remaining) | D (0-10% remaining) | > 8.00
Cn1nc(-c2ccc3c(c2)CN(C2CCC(=O)NC2=O)C3=O)nc1-c1ccccc1 (stereo not drawn) [Example 519, 3-[5-(1-methyl-5-phenyl-1,2,4-triazol-3-yl)-1-oxo-isoindolin-2-yl]piperidine-2,6-dione] | – | – | – | – | C (C = 0-10% remaining) | < 25 nM | ≥ 25 nM | F (F = >75-100% remaining) | E (>10-25% remaining) | 7.00 to 8.00
Cn1nc(-c2ccc3c(c2)CN(C2CCC(=O)NC2=O)C3=O)cc1C1CCC(F)(F)CC1 (stereo not drawn) [Example 546, 3-(5-(5-(4,4-difluorocyclohexyl)-1-methyl-1H-pyrazol-3-yl)-1-oxoisoindolin-2-yl)piperidine-2,6-dione] | – | – | – | – | D (D = >10- 25% remaining) | < 25 nM | ≥ 25 nM | F (F = >75-100% remaining) | F (>25-50% remaining) | 7.00 to 8.00
CC(C)n1nc(-c2ccc3c(c2)CN(C2CCC(=O)NC2=O)C3=O)nc1-c1ccccc1 (stereo not drawn) [Example 553, 3-(5-(1-isopropyl-5-phenyl-1H-1,2,4-triazol-3-yl)-1-oxoisoindolin-2-yl)piperidine-2,6-dione] | – | – | – | – | C (C = 0-10% remaining) | < 25 nM | ≥ 25 nM | F (F = >75-100% remaining) | D (0-10% remaining) | 7.00 to 8.00
